Data as given in patent US12577230B2, “2-(3-pyridin-2-yl-4-quinolin-4-yl-pyrazol-1-yl)- acetamide derivatives as inhibitors of transforming growth factor-beta receptor I/ALK5” (AGOMAB SPAIN S.L.U., priority 2020, dated 2026).

What was measured:
[1] = Determination of plasma stability in human plasma; assay type: in vitro ADME; details: 10 μM, 37° C.
Description: Determination of Plasma Stability of Some Compounds
Human plasma pooled from healthy donors extracted in citrate tubes was employed in the assay. Briefly, plates containing 10 μM compounds in plasma (total volume: 50 μL) were incubated at 37° C. at the different times (0, 30, 120 and 360 min). Then 100 μl Acetonitrile were added for precipitating plasma protein, and the plate was centrifuged at 46000 g for 60 min at 5° C. Supernatant was taken and analysed by UPLC/MS/MS for sample quantification. Stationary phase: Reverse phase Acquity UPLC® BEH C18 1.7 μm (2.1 mm×50 mm) (Waters). Mobile phase: 0.1% Formic acid water/0.1% formic acid in acetonitrile.
Flow: 0.6 ml/min. The chromatographic equipment employed was an UPL QSM Waters Acquity. Compound concentrations were calculated from the MS peak areas.

Human TGFβR-1 = biological target: T1, Human TGFβR-1 (Homo sapiens, UniProt P36897); assay: In vitro enzyme assay: inhibition of TGFβR-1 (ADP-Glo kinase assay); assay type: biochemical; details: TGFβR-1 kinase 50 ng/well, 50 μM ATP, 120 min RT
T1 construct: purchased Promega V4092
T1 sequence (P36897 34-503): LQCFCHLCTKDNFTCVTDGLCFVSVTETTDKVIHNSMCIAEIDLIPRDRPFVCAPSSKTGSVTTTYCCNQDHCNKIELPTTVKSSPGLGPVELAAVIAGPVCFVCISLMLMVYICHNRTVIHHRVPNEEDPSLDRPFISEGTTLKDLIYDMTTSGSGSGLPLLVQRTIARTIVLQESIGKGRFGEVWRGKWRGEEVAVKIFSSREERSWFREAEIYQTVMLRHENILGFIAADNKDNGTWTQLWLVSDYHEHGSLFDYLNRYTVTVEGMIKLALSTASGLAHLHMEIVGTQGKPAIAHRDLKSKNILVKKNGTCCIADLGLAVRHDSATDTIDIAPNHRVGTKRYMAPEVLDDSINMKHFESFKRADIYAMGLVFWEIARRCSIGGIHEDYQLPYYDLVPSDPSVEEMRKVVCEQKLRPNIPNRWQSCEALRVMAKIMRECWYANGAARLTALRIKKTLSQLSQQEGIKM
Excerpt: In the present application are used the following abbreviations, with the corresponding definitions: • AcOH: Acetic Acid • ACVR2B: activin A receptor, type IIB • ALKn: activin receptor-like kinase n • ATP: adenosin triphosphate • Boc2O: tert-butyl dicarbonate • Boc: tert-Butoxycarbonyl • Clint: Intrinsic clearance • DIPEA: N,N-Diisopropylethylamine • DMA: Dimethylacetamide • DMAP: 4-Dimethylaminopyridine • DMF: N,N-Dimethylformamide • DMSO: Dimethyl sulfoxide • EDCl: N-(3-Dimethylaminopropyl)-N′-ethylcarbodiimide) • Et3N: Triethylamine • EtOAc: Ethyl acetate • EtOH: ethanol • FBS: Fetal bovine serum • H: hour • HATU: 1-[Bis(dimethylamino)methylene]-1H-1,2,3-triazolo[4,5-b]pyridinium 3-oxide hexafluorophosphate • HOBT: Hydroxybenzotriazole • HPLC: High-performance liquid chromatography • ^1H-NMR: Proton nuclear magnetic resonance • K2EDTA: ethylenediaminetetracetic acid dipotassium salt • LC: Liquid chromatography • LiHMDS: Lithium bis(trimethylsilyl)amide • LLOQ: lower limit of quantification • MeCN: Acetonitrile • MeOH: Methanol • Min: minutes • MS: Mass spectroscopy • MTBE: Methyl tert-butyl ether • NBS: N-Bromosuccinimide • NaCMC: Sodium carboxymethyl cellulose • Rt: retention time • RT: room temperature • Sem: 2-(Trimethylsilyl)ethoxymethyl • TGFβ: transforming growth factor-β • THF: Tetrahydrofuran • THF:EtOH: Tetrahydrofuran:ethanol • UPLC: ultra high-performance liquid chromatography • UV: Ultraviolet Pharmacological Activity In Vitro Enzyme Assay: Inhibition of TGFβR-1 Human TGFβR-1 inhibition experiments were carried out in a white 384-microplate low flange (Corning 3572) with ADP-Glo kinase Assay Kit (Promega V9101) and TGFβR-1 Kinase Enzyme System (Promega V4092). Test compounds and standard Galunisertib (Cayman 15312), 50 ng/well TGFβR-1 kinase and 50 μM ATP were added in a final volume of 10 μL/well, using Reaction buffer supplied by kit as assay buffer. The reaction mixture was incubated in gentle shaking for 120 min at RT, after incubation of 10 μL of ADP-Glo Reagent was added and incubated in gentle shaking for 40 min at RT. 20 μL of Kinase Detection Reagent was added and plate was incubated in gentle shaking for 30 min at RT. Luminescence (1000 ms) was measured in Perkin Elmer EnSpire Multimode plate reader. Results

ALK-5 = biological target: T2, ALK-5 (Homo sapiens, UniProt P36897); assay: Determination of the intracellular TGF-beta kinase activity (ALK-5), AlphaLISA SureFire p-SMAD3 in A549 cells; assay type: cell-based; details: A549 cell line, TGF-β2 activated, p-SMAD3(Ser423/425)
T2 construct: endogenous in cells; host or cells: A549
T2 sequence (P36897 34-503): T1 sequence (P36897 34-503)
Description: Determination of the Intracellular TGF-Beta Kinase Activity (ALK-5)
The experiments were carried out in A549 cell line. 30000 cells were seeded in 200 μl of culture medium (Sigma D6046) supplemented with L-Glutamine (Sigma G7513), Penicillin/Streptomycin (Invitrogen 11058) and FBS (Sigma F9665) on a 96 wells microplate (Becton Dickinson 353072). After 16 hours medium was changed to serum free medium. Galunisertib, as inhibitor ligand (Cayman CAY-15312) and recombinant Human TGF-β2 (R&D Systems 302-B2-002) as activator of the ALK-5, were added in their corresponding wells and incubated following the instructions of the Alphascreen AlphaLISA@SureFire® Ultra™ p-SMAD3(Ser423/425) Kit (Perkin Elmer ALSU-PSM3-A500).

## CCN(CC)CCOC(=O)c1cc(F)cc(NC(=O)Cn2cc(-c3ccnc4ccccc34)c(-c3cccc(C)n3)n2)c1 [Example 7, 2-(diethylamino)ethyl 3-fluoro-5-(2-(3-(6-methylpyridin-2-yl)-4-(quinolin-4-yl)-1H-pyrazol-1-yl)acetamido)benzoate]
[1]
  remaining percentage 0 min: 100%
  remaining percentage 30 min: 16.0%
  remaining percentage 120 min: 3.3%
  remaining percentage 360 min: 0.1%
Human TGFβR-1
  IC50: 100 to 250 nM
ALK-5
  IC50: < 1000 nM

## Cc1cccc(-c2nn(CC(=O)Nc3cc(F)cc(C(=O)OCC4CCN(C)CC4)c3)cc2-c2ccnc3ccccc23)n1 [Example 9, (1-methylpiperidin-4-yl)methyl 3-fluoro-5-(2-(3-(6-methylpyridin-2-yl)-4-(quinolin-4-yl)-1H-pyrazol-1-yl)acetamido)benzoate]
[1]
  remaining percentage 0 min: 100%
  remaining percentage 30 min: 16.6%
  remaining percentage 120 min: 3.1%
  remaining percentage 360 min: 0%
Human TGFβR-1
  IC50: < 100 nM
ALK-5
  IC50: < 1000 nM

## Cc1cccc(-c2nn(CC(=O)Nc3cc(F)cc(C(=O)OCCN4CCNCC4)c3)cc2-c2ccnc3ccccc23)n1 [Example 19, 2-(piperazin-1-yl)ethyl 3-fluoro-5-(2-(3-(6-methylpyridin-2-yl)-4-(quinolin-4-yl)-1H-pyrazol-1-yl)acetamido)benzoate]
[1]
  remaining percentage 0 min: 100%
  remaining percentage 30 min: 1.9%
  remaining percentage 120 min: 0.3%
  remaining percentage 360 min: 0%
Human TGFβR-1
  IC50: < 100 nM
ALK-5
  IC50: < 1000 nM

## Cc1cccc(-c2nn(CC(=O)Nc3cc(F)cc(C(=O)OCCN(C)C)c3)cc2-c2ccnc3ccccc23)n1 [Example 1, 2-(dimethylamino)ethyl 3-fluoro-5-(2-(3-(6-methylpyridin-2-yl)-4-(quinolin-4-yl)-1H-pyrazol-1-yl)acetamido)benzoate]
[1]
  remaining percentage 0 min: 100%
  remaining percentage 30 min: 0%
  remaining percentage 120 min: 0%
  remaining percentage 360 min: 0%
Human TGFβR-1
  IC50: < 100 nM
ALK-5
  IC50: < 1000 nM

## Cc1cccc(-c2nn(CC(=O)Nc3cc(F)cc(C(=O)OC4CCNCC4)c3)cc2-c2ccnc3ccccc23)n1 [Example 21, piperidin-4-yl 3-fluoro-5-(2-(3-(6-methylpyridin-2-yl)-4-(quinolin-4-yl)-1H-pyrazol-1-yl)acetamido)benzoate]
[1]
  remaining percentage 0 min: 100%
  remaining percentage 30 min: 74.3%
  remaining percentage 120 min: 34.2%
  remaining percentage 360 min: 6.3%
Human TGFβR-1
  IC50: < 100 nM
ALK-5
  IC50: > 1000 nM

## Cc1cccc(-c2nn(CC(=O)Nc3cc(F)cc(C(=O)OCCN4CCOCC4)c3)cc2-c2ccnc3ccccc23)n1 [Example 4, 2-morpholinoethyl 3-fluoro-5-(2-(3-(6-methylpyridin-2-yl)-4-(quinolin-4-yl)-1H-pyrazol-1-yl)acetamido)benzoate]
Human TGFβR-1
  IC50: 100 to 250 nM
ALK-5
  IC50: < 1000 nM

## Cc1cccc(-c2nn(CC(=O)Nc3ccc(C(=O)OCCN(C)C)nc3)cc2-c2ccnc3ccccc23)n1 [Example 5, 2-(dimethylamino)ethyl 5-(2-(3-(6-methylpyridin-2-yl)-4-(quinolin-4-yl)-1H-pyrazol-1-yl)acetamido)picolinate]
[1]
  remaining percentage 0 min: 100%
  remaining percentage 30 min: 10%
  remaining percentage 120 min: 0%
  remaining percentage 360 min: 0%
Human TGFβR-1
  IC50: < 100 nM
ALK-5
  IC50: > 1000 nM
